Assay results taken from patent US20260151403A1, “NEK7 DEGRADERS AND METHODS OF USE THEREOF” (Captor Therapeutics S.A., priority 2022, published 2026).

Legend:
[1] = biological target: T1, [NEK7]-[compound of formula (I)]-[CRBN/DDB1] complex (Homo sapiens, UniProt Q8TDX7+Q96SW2); experiment: HTRF ternary complex assay; format: binding; settings: dose-response, 180 min at 25° C.; read-out: HTRF ternary complex Average pEC50 by molecule (converted)
Outline: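 Mix of 24 nM NEK7, 52.8 nM 6×His-CRBN/Strep-DDB1, 3 nM streptavidin-Eu cryptate and 6.67 nM anti-6×His-d2 in PPI Europium detection buffer with 1 mM DTT, dose-response compound, 0.5% DMSO, 180 min at 25° C. TR-FRET (665/620) read, normalized to DMSO background, Hill-slope fit gave EC50/pEC50.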

[2] = biological target: T1, [NEK7]-[compound of formula (I)]-[CRBN/DDB1] complex; experiment: AlphaLISA dose response ternary complex formation assay; format: binding; settings: 1 μM compound; normalized to maximum signal of Compound 2 (positive control) and DMSO background; read-out: Normalized AlphaLISA ternary complex average signal at 1 μM molecule
Outline: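 Biotinylated NEK7 (200 nM) on streptavidin donor beads and 6×His-CRBN/Strep-DDB1 (200 nM) on anti-His acceptor beads, each at 40 μg/ml and preincubated 30 min, then mixed and added to compound in HBS pH 7.4, 0.1% Tween-20, 1 mM DTT, 2% DMSO. After 30 min at 25 °C, AlphaLISA signal was read (ex 680/em 615 nm) and normalised to DMSO background and maximal Compound 2 signal.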

T1 sequence (Q8TDX7 whole entry): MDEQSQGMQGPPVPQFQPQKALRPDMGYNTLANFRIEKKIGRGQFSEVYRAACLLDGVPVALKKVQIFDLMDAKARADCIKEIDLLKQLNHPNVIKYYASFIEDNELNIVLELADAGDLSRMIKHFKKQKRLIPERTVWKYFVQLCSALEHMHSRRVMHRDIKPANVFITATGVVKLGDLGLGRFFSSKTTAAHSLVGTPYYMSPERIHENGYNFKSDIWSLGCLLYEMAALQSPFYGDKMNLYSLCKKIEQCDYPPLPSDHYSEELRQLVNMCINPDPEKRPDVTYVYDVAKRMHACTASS
T1 sequence (Q96SW2 whole entry): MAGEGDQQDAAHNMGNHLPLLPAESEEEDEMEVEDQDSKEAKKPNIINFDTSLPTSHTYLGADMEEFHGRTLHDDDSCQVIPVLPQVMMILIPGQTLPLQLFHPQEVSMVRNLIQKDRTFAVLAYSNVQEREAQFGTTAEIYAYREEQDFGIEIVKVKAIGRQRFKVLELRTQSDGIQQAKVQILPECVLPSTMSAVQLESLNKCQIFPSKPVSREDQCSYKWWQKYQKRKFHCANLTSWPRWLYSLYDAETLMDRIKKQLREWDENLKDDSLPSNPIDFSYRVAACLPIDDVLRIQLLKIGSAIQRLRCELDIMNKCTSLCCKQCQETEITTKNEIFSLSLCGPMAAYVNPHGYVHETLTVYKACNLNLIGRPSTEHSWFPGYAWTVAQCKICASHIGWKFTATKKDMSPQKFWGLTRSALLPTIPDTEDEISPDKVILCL
T1 sequence (Q16531 whole entry partner): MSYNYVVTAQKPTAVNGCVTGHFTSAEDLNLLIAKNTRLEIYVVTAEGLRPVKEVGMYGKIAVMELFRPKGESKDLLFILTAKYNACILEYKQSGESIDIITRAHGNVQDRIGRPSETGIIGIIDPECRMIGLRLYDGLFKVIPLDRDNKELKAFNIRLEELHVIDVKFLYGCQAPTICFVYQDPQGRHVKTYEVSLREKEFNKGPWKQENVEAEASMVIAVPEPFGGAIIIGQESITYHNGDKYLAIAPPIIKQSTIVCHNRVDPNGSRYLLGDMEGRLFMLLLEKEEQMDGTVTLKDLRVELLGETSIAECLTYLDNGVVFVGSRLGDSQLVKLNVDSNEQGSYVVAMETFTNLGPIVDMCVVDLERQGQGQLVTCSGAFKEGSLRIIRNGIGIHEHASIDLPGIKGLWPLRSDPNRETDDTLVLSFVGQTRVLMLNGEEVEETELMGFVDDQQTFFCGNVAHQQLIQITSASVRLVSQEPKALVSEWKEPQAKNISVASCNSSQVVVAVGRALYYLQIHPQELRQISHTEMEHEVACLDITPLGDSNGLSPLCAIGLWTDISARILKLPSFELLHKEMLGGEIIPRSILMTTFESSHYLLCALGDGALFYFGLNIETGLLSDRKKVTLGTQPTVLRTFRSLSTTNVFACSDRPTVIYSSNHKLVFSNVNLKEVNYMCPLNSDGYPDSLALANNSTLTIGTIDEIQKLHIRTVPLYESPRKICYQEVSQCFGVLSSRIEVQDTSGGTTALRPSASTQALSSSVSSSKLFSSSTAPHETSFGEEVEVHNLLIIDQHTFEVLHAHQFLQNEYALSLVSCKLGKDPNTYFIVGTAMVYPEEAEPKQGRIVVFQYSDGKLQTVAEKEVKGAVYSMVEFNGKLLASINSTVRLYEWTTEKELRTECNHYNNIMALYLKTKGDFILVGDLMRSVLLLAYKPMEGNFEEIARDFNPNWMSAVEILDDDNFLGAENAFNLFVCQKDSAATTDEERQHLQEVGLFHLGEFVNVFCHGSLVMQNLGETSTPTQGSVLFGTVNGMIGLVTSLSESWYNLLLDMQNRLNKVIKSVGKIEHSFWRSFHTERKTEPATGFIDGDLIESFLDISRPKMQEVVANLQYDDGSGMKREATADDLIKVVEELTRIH

Row | EC50 [1] | activation at 1 µM [2] | SMILES
1 | 316 to 1000 nM | > 80% | O=C1CCC(N2Cc3cc(C4CCCCN4)ccc3C2=O)C(=O)N1 (centres unmarked) [Compound 2, 3-(1-oxo-5-(piperidin-2-yl)isoindolin-2-yl)piperidine-2,6-dione]
2 | > 3160 nM | < 10% | Cc1c(C2CCCCN2)ccc2c1CN(C1CCC(=O)NC1=O)C2=O (centres unmarked) [Compound 19, 3-(4-methyl-1-oxo-5-(piperidin-2-yl)isoindolin-2-yl)piperidine-2,6-dione]
3 | 316 to 1000 nM | > 80% | O=C1CCC(N2Cc3cc(-c4ccccn4)ccc3C2=O)C(=O)N1 (centres unmarked) [2(2), 3-(1-oxo-5-(pyridin-2-yl)isoindolin-2-yl)piperidine-2,6-dione]
4 | 100 to 316 nM | > 80% | O=C1CCC(N2Cc3cc(-c4ccc(-c5ccccc5)cn4)ccc3C2=O)C(=O)N1 (centres unmarked) [4(2), 3-(1-oxo-5-(5-phenylpyridin-2-yl)isoindolin-2-yl)piperidine-2,6-dione]
5 | 316 to 1000 nM | > 80% | CC1c2cc(C3CCCCN3)ccc2C(=O)N1C1CCC(=O)NC1=O (centres unmarked) [Compound 25, 3-(3-methyl-1-oxo-5-(piperidin-2-yl)isoindolin-2-yl)piperidine-2,6-dione]
6 | > 3160 nM | < 10% | O=C1CCC(N2Cc3cc(C4CCCCN4)c(F)cc3C2=O)C(=O)N1 (centres unmarked) [Compound 23, 3-(6-fluoro-1-oxo-5-(piperidin-2-yl)isoindolin-2-yl)piperidine-2,6-dione]
7 | 316 to 1000 nM | > 80% | CC1c2cc(C3CCCCO3)ccc2C(=O)N1C1CCC(=O)NC1=O (centres unmarked) [Compound 64, 3-(3-methyl-1-oxo-5-(tetrahydro-2H-pyran-2-yl)isoindolin-2-yl)piperidine-2,6-dione]
